Source: US9328085B2, “Heterocyclic compounds and expansion agents for hematopoietic stem cells” (NISSAN CHEMICAL INDUSTRIES, LTD., priority 2009, dated 2016)

Columns and labels:
CD34^+CD38^− cells = assay: Expansion of CD34+CD38- cells using human cord blood-derived CD34+ cells (Assay Example 1); type: cell-based; details: for Expansion efficiency (CD34^+CD38^− cells): 100 ng/mL SCF, 7 days, based on the number of CD34^+CD38^− cells in the absence of compound; for Comparison with TPO: 3 μg/mL compound vs TPO 10 ng/mL, CD34^+CD38^− cells
Procedure: (§1) Human cord blood-derived CD34^+ cells were purchased from Lonza and plated on a 24-well plate (Corning) (10000 cells/1 mL/well). As the culture medium, StemSpan SFEM (StemCell Technologies) containing 100 ng/mL SCF (Wako Pure Chemical Industries) was used, and one of Compounds No. 1 to 72 dissolved in dimethyl sulfoxide was added in an amount of 0.1% (v/v) to a final concentration of 1 or 3 μg/mL. As a positive control, TPO (PeproTech) was used at a final concentration of 10 ng/mL.
(§2) After the cells were incubated in liquid culture at 37° C. for 7 days in a CO2 incubator (5% CO2), the number of viable cells was counted by trypan blue assay. The number of CD34^+CD38^− cells was calculated as follows. After the incubation, the cells in the liquid culture was stained with a CD34 antibody (APC, Becton, Dickinson and Company) and a CD38 antibody (PE, Becton, Dickinson and Company), then washed with PBS(−) containing 2% (v/v) FBS and stained with propidium iodide (Sigma-Aldrich Japan) added to a final concentration of 5 μg/mL. The stained cells were analyzed with a BD FACSCANTO™ II flow cytometer (Becton, Dickinson and Company) to determined the proportions of CD34^+ cells and CD34^+CD38^− cells, which was multiplied by the number of viable cells to calculate the numbers of CD34^+ cells and CD34^+CD38^− cells.
(§3) The expansion efficiencies in the presence of 1 or 3 μg/mL of compounds based on the number of CD34^+ cells in the absence of them are shown in Tables 3-1 and 3-2 on a scale of A for expansion efficiencies of 6 or greater, B for expansion efficiencies of at least 4 and less than 6, and C for expansion efficiencies of at least 2 and less than 4. The expansion efficiencies in the presence of 1 or 3 μg/mL of compounds based on the number of CD34^+CD38^− cells in the absence of them are shown in Tables 4-1 and 4-2 on a scale of A for expansion efficiencies of 10 or greater, B for expansion efficiencies of at least 5 and less than 10, and C for expansion efficiencies of at least 3 and less than 5. Further, in Table 3, the compounds with an expansion efficiency twice or more greater than that of TPO are marked with O.

CD34^+ cells = assay: Expansion of CD34+ cells using human cord blood-derived CD34+ cells (Assay Example 1); type: cell-based; details: 100 ng/mL SCF, 7 days, based on the number of CD34^+ cells in the absence of compound
Procedure: as §1, §2, §3

Row | SMILES | Expansion efficiency (CD34^+CD38^− cells) (CD34^+CD38^− cells; 3 μg/mL compound) | Expansion efficiency (CD34^+ cells) (CD34^+ cells; 3 μg/mL compound) | Comparison with TPO (CD34^+CD38^− cells) | Expansion efficiency (CD34^+CD38^− cells) (CD34^+CD38^− cells; 1 μg/mL compound) | Expansion efficiency (CD34^+ cells) (CD34^+ cells; 1 μg/mL compound)
1 | CC(=NNC(=O)c1ccc(C(=O)NCc2ccc(C(=O)NCc3ccccn3)cc2)s1)c1csc(-c2ccc(Br)cc2)c1O [Compound No. 6] | C (C for expansion efficiencies of at least 3 and less than 5) | – | – | – | –
2 | C/C(=N\NC(=O)c1ccc(C(=O)NCc2ccc(S(=O)(=O)NCCOCCO)cc2)s1)c1csc(-c2ccc(Cl)c(Cl)c2)c1O [compound 1] | A (A for expansion efficiencies of 10 or greater) | C (C for expansion efficiencies of at least 2 and less than 4) | – | – | –
3 | CC(=NNC(=O)c1ccc(C(=O)NCc2ccc(S(=O)(=O)NCCOCCO)cc2)s1)c1csc(-c2ccc(C(C)(C)C)cc2)c1O [compound 2] | A (A for expansion efficiencies of 10 or greater) | B (B for expansion efficiencies of at least 4 and less than 6) | – | – | –
4 | CC(=NNC(=O)c1ccc(C(=O)NCc2ccc(S(=O)(=O)NCCOCCO)cc2)s1)c1csc(-c2ccc(Br)cc2)c1O [compound 3] | A (A for expansion efficiencies of 10 or greater) | C (C for expansion efficiencies of at least 2 and less than 4) | – | – | –
5 | CC(=NNC(=O)c1ccc(C(=O)NCc2ccc(C(=O)NCc3ccccn3)cc2)s1)c1csc(-c2ccc(Cl)c(Cl)c2)c1O [compound 4] | B (B for expansion efficiencies of at least 5 and less than 10) | C (C for expansion efficiencies of at least 2 and less than 4) | – | – | –
6 | CC(=NNC(=O)c1ccc(C(=O)NCc2ccc(C(=O)NCc3ccccn3)cc2)s1)c1csc(-c2ccc(C(C)(C)C)cc2)c1O [compound 5] | A (A for expansion efficiencies of 10 or greater) | B (B for expansion efficiencies of at least 4 and less than 6) | – | – | –
7 | CC(=NNC(=O)c1ccc(C(=O)NCc2ccc(C(=O)NCc3ccco3)cc2)s1)c1csc(-c2ccc(Cl)c(Cl)c2)c1O [compound 7] | B (B for expansion efficiencies of at least 5 and less than 10) | C (C for expansion efficiencies of at least 2 and less than 4) | – | – | –
8 | CC(=NNC(=O)c1ccc(C(=O)NCc2ccc(C(=O)NCc3ccco3)cc2)s1)c1csc(-c2ccc(C(C)(C)C)cc2)c1O [compound 8] | B (B for expansion efficiencies of at least 5 and less than 10) | – | – | – | –
9 | CC(=NNC(=O)c1ccc(C(=O)NCc2ccc(C(=O)NCc3ccco3)cc2)s1)c1csc(-c2ccc(Br)cc2)c1O [compound 9] | B (B for expansion efficiencies of at least 5 and less than 10) | C (C for expansion efficiencies of at least 2 and less than 4) | – | – | –
10 | CC(=NNC(=O)c1ccc(C(=O)NCc2ccc(C(=O)NCC3CCCO3)cc2)s1)c1csc(-c2ccc(Cl)c(Cl)c2)c1O (stereo not shown) [compound 10] | A (A for expansion efficiencies of 10 or greater) | B (B for expansion efficiencies of at least 4 and less than 6) | – | – | –
11 | CC(=NNC(=O)c1ccc(C(=O)NCc2ccc(C(=O)NCC3CCCO3)cc2)s1)c1csc(-c2ccc(C(C)(C)C)cc2)c1O (stereo not shown) [compound 11] | A (A for expansion efficiencies of 10 or greater) | A (A for expansion efficiencies of 6 or greater) | – | – | –
12 | CC(=NNC(=O)c1ccc(C(=O)NCc2ccc(C(=O)NCC3CCCO3)cc2)s1)c1csc(-c2ccc(Br)cc2)c1O (stereo not shown) [compound 12] | A (A for expansion efficiencies of 10 or greater) | A (A for expansion efficiencies of 6 or greater) | – | – | –
13 | CC(=NNC(=O)c1ccc(C(=O)NCc2ccc(C(=O)NCCO)cc2)s1)c1csc(-c2ccc(Cl)c(Cl)c2)c1O [compound 13] | A (A for expansion efficiencies of 10 or greater) | A (A for expansion efficiencies of 6 or greater) | ∘ | – | –
14 | CC(=NNC(=O)c1ccc(C(=O)NCc2ccc(C(=O)NCCO)cc2)s1)c1csc(-c2ccc(C(C)(C)C)cc2)c1O [compound 14] | – | – | – | A (A for expansion efficiencies of 10 or greater) | A (A for expansion efficiencies of 6 or greater)
15 | CC(=NNC(=O)c1ccc(C(=O)NCc2ccc(C(=O)NCCO)cc2)s1)c1csc(-c2ccc(Br)cc2)c1O [compound 15] | A (A for expansion efficiencies of 10 or greater) | A (A for expansion efficiencies of 6 or greater) | ∘ | – | –
16 | CC(=NNC(=O)c1ccc(C(=O)NCc2ccc(C(=O)NCCN3CCOCC3)cc2)s1)c1csc(-c2ccc(Cl)c(Cl)c2)c1O [compound 19] | A (A for expansion efficiencies of 10 or greater) | C (C for expansion efficiencies of at least 2 and less than 4) | – | – | –
17 | CC(=NNC(=O)c1ccc(C(=O)NCc2ccc(C(=O)NCCN3CCOCC3)cc2)s1)c1csc(-c2ccc(C(C)(C)C)cc2)c1O [compound 20] | A (A for expansion efficiencies of 10 or greater) | B (B for expansion efficiencies of at least 4 and less than 6) | ∘ | – | –
18 | CC(=NNC(=O)c1ccc(C(=O)NCc2ccc(C(=O)NCCN3CCOCC3)cc2)s1)c1csc(-c2ccc(Br)cc2)c1O [compound 21] | A (A for expansion efficiencies of 10 or greater) | A (A for expansion efficiencies of 6 or greater) | ∘ | – | –
19 | CC(=NNC(=O)c1ccc(C(=O)NCc2ccc(C(=O)NCCN(CCO)CCO)cc2)s1)c1csc(-c2ccc(Cl)c(Cl)c2)c1O [compound 22] | A (A for expansion efficiencies of 10 or greater) | A (A for expansion efficiencies of 6 or greater) | ∘ | – | –
20 | CC(=NNC(=O)c1ccc(C(=O)NCc2ccc(C(=O)NCCN(CCO)CCO)cc2)s1)c1csc(-c2ccc(C(C)(C)C)cc2)c1O [compound 23] | A (A for expansion efficiencies of 10 or greater) | A (A for expansion efficiencies of 6 or greater) | ∘ | – | –
21 | CC(=NNC(=O)c1ccc(C(=O)NCc2ccc(C(=O)NCCN(CCO)CCO)cc2)s1)c1csc(-c2ccc(Br)cc2)c1O [compound 24] | A (A for expansion efficiencies of 10 or greater) | A (A for expansion efficiencies of 6 or greater) | ∘ | – | –
22 | CC(=NNC(=O)c1ccc(C(=O)NCc2ccc(C(=O)NCCN3CCN(C(=O)OC(C)(C)C)CC3)cc2)s1)c1csc(-c2ccc(Br)cc2)c1O [compound 27] | C (C for expansion efficiencies of at least 3 and less than 5) | – | – | – | –
23 | CC(=NNC(=O)c1ccc(C(=O)NCc2ccc(C(=O)NCCN3CCNCC3)cc2)s1)c1csc(-c2ccc(Cl)c(Cl)c2)c1O [compound 28] | A (A for expansion efficiencies of 10 or greater) | B (B for expansion efficiencies of at least 4 and less than 6) | – | – | –
24 | CC(=NNC(=O)c1ccc(C(=O)NCc2ccc(C(=O)NCCN3CCNCC3)cc2)s1)c1csc(-c2ccc(C(C)(C)C)cc2)c1O [compound 29] | A (A for expansion efficiencies of 10 or greater) | A (A for expansion efficiencies of 6 or greater) | ∘ | – | –
25 | CC(=NNC(=O)c1ccc(C(=O)NCc2ccc(C(=O)NCCN3CCNCC3)cc2)s1)c1csc(-c2ccc(Br)cc2)c1O [compound 30] | A (A for expansion efficiencies of 10 or greater) | A (A for expansion efficiencies of 6 or greater) | ∘ | – | –
26 | CC(=NNC(=O)c1ccc(C(=O)NCc2ccc(C(=O)NCCOCCO)cc2)nc1)c1csc(-c2ccc(C(C)(C)C)cc2)c1O [compound 47] | B (B for expansion efficiencies of at least 5 and less than 10) | – | – | – | –
27 | CC(=NNC(=O)c1cccc(C(=O)NCc2ccc(C(=O)NCCOCCO)cc2)n1)c1csc(-c2ccc(C(C)(C)C)cc2)c1O [compound 50] | C (C for expansion efficiencies of at least 3 and less than 5) | – | – | – | –
